Assay results as given in patent US20240109868A1, “EP300/CBP MODULATOR, PREPARATION METHOD THEREFOR AND USE THEREOF” (Miracure Biotechnology Limited, priority 2022, published 2024).

What was measured:
22Rv1 Cell = assay: 22RV1 cell growth inhibition, CellTiter-Glo, 72 h; type: cell-based; settings: Homo sapiens, 22Rv1, 72 h, 22RV1 cells, 72 h culture
Method: (§1) 22RV1 or vCap cells were cultured in RPMI-1640 medium (10% fetal bovine serum and 100 units (per mL) of penicillin/streptomycin dual antibody were added to RPMI-1640) in a 37° C., 5% CO2 cell incubator. Cells at the logarithmic growth phase were inoculated onto a 96-well cell culture plate at 5×10^3 cells/100 μL/well and cultured overnight. Solutions of different concentrations of an active compound in DMSO were added, with the final concentration being 0.5% DMSO. The positive control was 1% TweeN2O, and the negative control was 0.5% DMSO. After 72 h of culture, an equal volume of CellTiter-Glo was added to each well, and the mixtures were mixed homogeneously by shaking for 2 min. The plate was let stand at room temperature for 10 min, and fluorescence signal values were read using a microplate reader. Data were analyzed using Prism 7.0 and graphs were generated. The values are shown as mean f SEM (N=2). […] The X-axis represents compound concentration (μM), and the Y-axis represents % inhibition.

vCap Cell = assay: vCap cell growth inhibition, CellTiter-Glo, 72 h; type: cell-based; settings: Homo sapiens, VCaP, 72 h, vCap cells, 72 h culture
Method: as §1

SMILES	IC50 (22Rv1 Cell)	IC50 (vCap Cell)
CNC(=O)N1Cc2cc(C3CCC(F)(F)CC3)cc(N3CCCc4cc(-c5cnn(C)c5)c(C(F)F)cc43)c2C1 [Compound M001094]	> 1000 nM	> 1000 nM
CNC(=O)N1Cc2cc(C3CC4CCC(C3)N4C(C)=O)cc(N3CCCc4cc(-c5cnn(C)c5)c(C(F)F)cc43)c2C1 (centres unmarked) [Compound M001095]	> 1000 nM	> 1000 nM
CNC(=O)N1Cc2cc(C3=CCN(C(=O)OCc4ccccc4)CC3)cc(N3CCCc4cc(-c5cnn(C)c5)c(C(F)F)cc43)c2C1 [Compound M001096]	> 1000 nM	> 1000 nM
CNC(=O)N1Cc2cc(C3=CC4CCC(C3)N4C(=O)OC(C)(C)C)cc(N3CCCc4cc(-c5cnn(C)c5)c(C(F)F)cc43)c2C1 (centres unmarked) [Compound M001097]	> 1000 nM	> 1000 nM
CNC(=O)N1Cc2cc(C3=CC4CCC(C3)N4)cc(N3CCCc4cc(-c5cnn(C)c5)c(C(F)F)cc43)c2C1 (centres unmarked) [Compound M001098]	> 1000 nM	> 1000 nM
CNC(=O)N1Cc2cc(C3CC4CCC(C3)N4)cc(N3CCCc4cc(-c5cnn(C)c5)c(C(F)F)cc43)c2C1 (centres unmarked) [Compound M001099]	> 1000 nM	> 1000 nM
CC(=O)N1Cc2cc(C3CCC4(CC3)OCCO4)cc(N3CCCc4cc(-c5cnn(C)c5)c(C(F)F)cc43)c2C1 [Compound M001101]	< 1000 nM	< 1000 nM
CC(=O)N1Cc2cc(C3CCC(=O)CC3)cc(N3CCCc4cc(-c5cnn(C)c5)c(C(F)F)cc43)c2C1 [Compound M001102]	> 1000 nM	< 1000 nM
CNC(=O)N1CCc2cc(C3CCC(=O)CC3)cc(N3CCCc4cc(-c5cnn(C)c5)c(C(F)F)cc43)c2C1 [Compound M001103]	> 1000 nM	> 1000 nM
CNC(=O)N1Cc2cc(C3CC4CCC(C3)N4C(=O)NC)cc(N3CCCc4cc(-c5cnn(C)c5)c(C(F)F)cc43)c2C1 (centres unmarked) [Compound M001116]	> 1000 nM	> 1000 nM
CNC(=O)N1Cc2cc(C3CCNC(=O)C3)cc(N3CCCc4cc(-c5cnn(C)c5)c(C(F)F)cc43)c2C1 (centres unmarked) [Compound M001118]	> 1000 nM	> 1000 nM
CNC(=O)N1Cc2cc(C3CCN(C)C(=O)C3)cc(N3CCCc4cc(-c5cnn(C)c5)c(C(F)F)cc43)c2C1 (centres unmarked) [Compound M001119]	> 1000 nM	> 1000 nM
CNC(=O)N1Cc2cc(-c3ccccc3)cc(N3CCCc4cc(-c5cnn(C)c5)c(C(F)F)cc43)c2C1 [Compound M001120]	> 1000 nM	> 1000 nM
CNC(=O)N1Cc2cc(-c3ccc(OC)cc3)cc(N3CCCc4cc(-c5cnn(C)c5)c(C(F)F)cc43)c2C1 [Compound M001121]	> 1000 nM	> 1000 nM
CNC(=O)N1Cc2cc(-c3ccn(C)c(=O)c3)cc(N3CCCc4cc(-c5cnn(C)c5)c(C(F)F)cc43)c2C1 [Compound M001122]	> 1000 nM	> 1000 nM
CNC(=O)N1CCc2cc(C3CCNC(=O)C3)cc(N3CCCc4cc(-c5cnn(C)c5)c(C(F)F)cc43)c2C1 (centres unmarked) [Compound M001123]	> 1000 nM	< 1000 nM
CNC(=O)N1CCc2cc(C3CCN(C)C(=O)C3)cc(N3CCCc4cc(-c5cnn(C)c5)c(C(F)F)cc43)c2C1 (centres unmarked) [Compound M001124, 8-(7-(difluoromethyl)-6-(1-methyl-1H-pyrazol-4-yl)-3,4-dihydroquinolin-1(2H)-yl)-N-methyl-6-(1-methyl-2-oxopiperidin-4-yl)-3,4H-dihydroisoquinoline-2(1H)-carboxamide]	< 1000 nM	< 1000 nM
CNC(=O)N1CCc2cc(-c3ccn(C)c(=O)c3)cc(N3CCCc4cc(-c5cnn(C)c5)c(C(F)F)cc43)c2C1 [Compound M001125]	> 1000 nM	< 1000 nM
CC(=O)N1Cc2cc(C3CCN(C)C(=O)C3)cc(N3CCCc4cc(-c5cnn(C)c5)c(C(F)F)cc43)c2C1 (centres unmarked) [Compound M001127]	< 1000 nM	< 1000 nM

SMILES	IC50 (22Rv1 Cell)	IC50 (vCap Cell)
CC(=O)N1Cc2cc(-c3ccn(C)c(=O)c3)cc(N3CCCc4cc(-c5cnn(C)c5)c(C(F)F)cc43)c2C1 [Compound M001128]	> 1000 nM	> 1000 nM
CNC(=O)N1C2CCC1CC(c1cc3c(c(N4CCCc5cc(-c6cnn(C)c6)c(C(F)F)cc54)c1)CN(C(C)=O)C3)C2 (centres unmarked) [Compound M001129]	< 1000 nM	< 1000 nM
COC(=O)N1C2CCC1CC(c1cc3c(c(N4CCCc5cc(-c6cnn(C)c6)c(C(F)F)cc54)c1)CN(C(C)=O)C3)C2 (centres unmarked) [Compound M001132]	> 1000 nM	< 1000 nM
CNC(=O)N1Cc2cc(C3CC4CCC(C3)N4C(=O)OC)cc(N3CCCc4cc(-c5cnn(C)c5)c(C(F)F)cc43)c2C1 (centres unmarked) [Compound M001137]	> 1000 nM	> 1000 nM
CC(=O)N1CCc2cc(C3CCNC(=O)C3)cc(N3CCCc4cc(-c5cnn(C)c5)c(C(F)F)cc43)c2C1 (centres unmarked) [Compound M001142]	> 1000 nM	> 1000 nM
CC(=O)N1CCc2cc(C3CCN(C)C(=O)C3)cc(N3CCCc4cc(-c5cnn(C)c5)c(C(F)F)cc43)c2C1 (centres unmarked) [Compound M001143]	> 1000 nM	> 1000 nM
CC(=O)N1CCc2cc(-c3ccn(C)c(=O)c3)cc(N3CCCc4cc(-c5cnn(C)c5)c(C(F)F)cc43)c2C1 [Compound M001144]	> 1000 nM	> 1000 nM
CC(=O)N1CCc2cc(-c3cc[nH]c(=O)c3)cc(N3CCCc4cc(-c5cnn(C)c5)c(C(F)F)cc43)c2C1 [Compound M001153]	> 1000 nM	> 1000 nM
CNC(=O)N1Cc2cc(-c3cc[nH]c(=O)c3)cc(N3CCCc4cc(-c5cnn(C)c5)c(C(F)F)cc43)c2C1 [Compound M001155]	> 1000 nM	> 1000 nM
CC(=O)N1Cc2cc(-c3cc[nH]c(=O)c3)cc(N3CCCc4cc(-c5cnn(C)c5)c(C(F)F)cc43)c2C1 [Compound M001156]	> 1000 nM	> 1000 nM
CNC(=O)N1Cc2cc(C3CCN(C(C)=O)CC3)cc(N3CCCc4cc(-c5cnn(C)c5)c(C(F)F)cc43)c2C1 [Compound M001161]	> 1000 nM	< 1000 nM
CNC(=O)N1Cc2cc(C3CCN(C(=O)C4CC4)CC3)cc(N3CCCc4cc(-c5cnn(C)c5)c(C(F)F)cc43)c2C1 [Compound M001162]	> 1000 nM	> 1000 nM
CNC(=O)N1Cc2cc(C3CCN(C(=O)c4ccccc4)CC3)cc(N3CCCc4cc(-c5cnn(C)c5)c(C(F)F)cc43)c2C1 [Compound M001163]	> 1000 nM	> 1000 nM
CN1CCC(c2cc3c(c(N4CCCc5cc(-c6cnn(C)c6)c(C(F)F)cc54)c2)CN(C(=O)C2CC2)C3)CC1=O (centres unmarked) [Compound M001164]	> 1000 nM	> 1000 nM
CNC(=O)N1CCc2cc(C3CCC(=O)N(C)C3)cc(N3CCCc4cc(-c5cnn(C)c5)c(C(F)F)cc43)c2C1 (centres unmarked) [Compound M001170]	< 1000 nM	< 1000 nM
CC(=O)N1Cc2cc(C3CCN(C(=O)c4cn(C)cn4)CC3)cc(N3CCCc4cc(-c5cnn(C)c5)c(C(F)F)cc43)c2C1 [Compound M001176]	< 1000 nM	< 1000 nM
CC(=O)N1CCc2cc([C@H]3CC[C@@H](O)CC3)cc(N3CCCc4cc(-c5cnn(C)c5)c(C(F)F)cc43)c2C1 [Compound M001178]	> 1000 nM	> 1000 nM
CC(=O)N1CCc2cc([C@H]3CC[C@H](O)CC3)cc(N3CCCc4cc(-c5cnn(C)c5)c(C(F)F)cc43)c2C1 [Compound M001179]	> 1000 nM	> 1000 nM
